Results published in patent US8242087B2, “Phosphate modified nucleosides useful as substrates for polymerases and as antiviral agents” (priority 2007, dated 2012).

Tests used:
HIV RT = molecular target: T1, HIV RT (Human immunodeficiency virus type 1 group M subtype B, UniProt P03366); assay: Steady state kinetics of single nucleotide incorporation by HIV RT (P1/T1); type: biochemical, HIV-1; conditions: P1/T1, 37° C.
T1 construct: HIV RT polymerase was purchased from GE Healthcare; purchased GE Healthcare (Amersham Bioscience)
Procedure: The steady steate kinetics of a single nucleotide incorporation of an amino acid phosphoramidate (AA-dAMP) and of a natural nucleoside triphosphate (dATP) was determined by the gel-based polymerase assay. In all the experiments, the template T1 and the primer P1 were used (Table 1). The primer and template in 1:2 molar ratio were hybridized in a buffer containing 20 mM TRIS.HCl, 10 mM KCl, 2 mM MgSO4, 0.1% Triton X-100, pH 8.8 and used in an amount to provide 125 nM concentration of the primer in each 12 μL reaction. The range of concentrations for amino acid phosphoramidates was optimized according to a Km value for the incorporation of an individual nucleotide. In the case of HIV RT (Amersham Bioscience (GE Healthcare), 30 U/μL), reaction mixtures containing the enzyme in concentration to attain 5-20% conversion and appropriate substrate concentration (nucleoside phosphoramidate or natural dNTP) were incubated at 37° C. and run for 8-10 different time intervals. Kinetic analysis of single nucleotide incorporation by Therminator DNA polymerase (NEB, 2 U/μL) was performed similarly except the incubations and polymerase reactions, which were carried out at 70° C. To prevent solvent condensation/evaporation, the reaction mixtures were topped with mineral oil. The reactions were quenched by addition of the buffer containing 80% formamide, 2 mM EDTA, 1×TBE buffer. The analysis of polymerase reactions was performed by polyacrylamide gel electrophoresis (20% (19:1 mono:bis), 7M urea, 30 cm×40 cm×0.4 mm). The relative band intensities were measured using OptiQuant software. The rates of incorporation (V) were calculated based on the percentage of the extension production (n+1 band). The kinetic parameters (Vmax and Km) were determined by plotting V (pmol/min·U) versus substrate concentration and fitting the data point to a rectangular hyperbola using GraphPad Prism software.

[1] = molecular target: T2, HIV reverse transcriptase (Human immunodeficiency virus type 1 group M subtype B, UniProt P03366); assay: Steady-state kinetic assay of Asp-dNMP incorporation by HIV RT (Example 4); type: biochemical, HIV-1; conditions: 37° C.; P1-T2, P1-T4 or P2T4
T2 construct: performed for the enzyme HIV reverse transcriptase (GE Healthcare, 30 U/4 stock solution); purchased GE Healthcare
Procedure: To determine the kinetic parameters of the incorporation of Asp-dGMP (9), Asp-dTMP (10), Asp-dCMP (11) or dGTP, dTTP, dCTP, a steady-state kinetic assay was carried out. The reaction mixture was started by adding HIV reverse transcriptase to P1-T2, P1-T4 or P2T4 complex, buffer and Asp-dGMP, Asp-dTMP, Asp-dCMP or dGTP, dTTP, dCTP. The final mixture (20 μL) contained 0.015 or 0.0075 U/μL HIV reverse transcriptase, buffer, 125 nM primer-template complex and various concentrations of Asp-dNMP or dNTP. A concentration range of 0.01-1 mM was used for Asp-dNPM and a concentration range of 0.1-10 μM was used for dNTP. Reactions were incubated at 37° C. Reaction times were between 1 and 120 minutes. The kinetic constants Vmax and KM were determined from a Michaëlis-Menten plot, using GraphPad Prism version 3.02.
(§1) All polymerase reactions (3 μL) were quenched by the addition of 10 μL of loading buffer (90% formamide, 0.05% bromophenol blue, 0.05% xylene cyanol and 50 mM EDTA). Samples were heated at 70° C. for 5 minutes prior to analysis by electrophoresis for 2-3 hours at 2000 V on a 0.4 mm 20% denaturing gel in the presence of a 100 mM Tris-borate, 2.5 mM EDTA buffer, pH 8.3. Products were visualized by phosphor imaging. The amount of radioactivity in the bands corresponding to the products of enzymatic reactions was determined by using the Optiquant image analysis software (Perkin Elmer).

[2] = molecular target: T2, HIV reverse transcriptase; assay: Gel-based single-nucleotide-incorporation and control assays with HIV RT (Example 4); type: biochemical, HIV-1; conditions: P1/T2, compound 9 alone
[3] = molecular target: T2, HIV reverse transcriptase; assay: as above; type: biochemical, HIV-1; conditions: for conversion to a n+1 strand: 60 min, 500 μM nucleotide concentration, P1T2 (9), P1T4 (10), P2T4 (11); for control experiment with a mismatch sequence: A against A P1T4 (12), G against A P1T4 (9), T against C P1T2 (10), C against T P1T1 (11); for incorporation with blunt ended duplex: primer P1, template A
Procedure: End-labeled primers were annealed to their template by combining primer and templates in a molar ratio of 1:2 and heating the mixture to 70° C. for 10 minutes, followed by slow cooling to room temperature over a period of 2.5 hours. For the incorporation of L-Asp-dGMP (9), L-Asp-dTMP (10), L-Asp-dCMP (11), and N-Me-Asp-dAMP (12) (see FIG. 13), the primer P1 was annealed to templates T1, T2, T4 or A and P2 was annealed to T4. A series of 20 μL reactions was performed for the enzyme HIV reverse transcriptase (GE Healthcare, 30 U/4 stock solution). The final mixture contained 125 nM primer-template complex, RT buffer (250 mM TrisHCl, 250 mM KCl, 50 mM MgCl2, 2.5 mM spermidine, 50 mM DTT, pH 8.3), 0.03 U/μL HIV RT and different amino acid phosphoramidates building blocks concentrations. In the control reaction with the natural nucleotide, 10 μM or 50 μM dGTP, dTTP, dATP or dCTP were used. The mixture was incubated at 37° C. […] and aliquots were quenched after 5, 10, 20, 30, 60 and 120 minutes respectively.
as §1

[4] = molecular target: T3, HIV-1 Reverse Transcriptase (Human immunodeficiency virus type 1 group M subtype B, UniProt P03366); assay: Single incorporation into P1T1 by HIV-1 Reverse Transcriptase (Examples 6, 7, 9); type: biochemical; conditions: 2 hours, 1 mM concentration
T3 construct: performed with the enzyme HIV-1 RT (Ambion, 10 U/μL stock solution); purchased Ambion
Procedure: HIV-1 Reverse Transcriptase serves, in the HIV-1 viral replication process, as a catalyst and uses deoxynucleotides as substrates. This polymerase is error-prone and thus has a high mutation rate. Here, we evaluated the capacity to incorporate a deoxyadenosine nucleoside into the primer-template complex P1T1 using HIV-1 RT, and some of the above described illustrative compounds of the invention, carrying different leaving groups, as substrates. The initial screening was carried out using a template with an overhang of one thymidine nucleotide followed by three non-pyrimidine bases (Table 1). Incorporation efficiency was analysed by the polyacrylamide gel-based single nucleotide incorporation assay.
End-labeled primer was annealed to its template by combining primer and template in a molar ratio of 1:2 and heating the mixture to 70° C. for 10 minutes followed by slow cooling to room temperature over a period of 1.5 hour. For the incorporation of 1, 2, 3, 4, 5 and 6, a series of 20 μL-batch reactions was performed with the enzyme HIV-1 RT (Ambion, 10 U/μL stock solution, specific activity 8.095 U/mg, concentration 1.2 mg/mL). The final mixture contained 125 nM primer template complex, RT buffer (250 mM Tris.HCl, 250 mM KCl, 50 mM MgCl2, 2.5 mM spermidine, 50 mM dithiothreitol (DTT); pH 8.3), 0.025 U/μL HIV-1 RT, and different concentrations of phosphoramidate or phosphodiester building blocks (1 mM, 500 μM, 200 μM and 100 μM respectively). In the case of the aromatic phosphate-modified nucleosides 23 and 24, the range of concentrations was limited to 1 mM. In the control reaction with the natural nucleotide, a 10 μM dATP concentration was used. The mixture was incubated at 37° C. and 2.5 μL aliquots were quenched after 5, 10, 20, 30, 60 and 120 minutes.

[5] = molecular target: T4, HIV reverse transcriptase (HIV RT) (Human immunodeficiency virus type 1 group M subtype B, UniProt P03366); assay: Single nucleotide incorporation by HIV RT, gel-based, P1/T1 (Examples 2-3); type: biochemical, HIV-1; conditions: single nucleotide incorporation, FIG. 4
T4 construct: HIV RT polymerase was purchased from GE Healthcare; purchased GE Healthcare (Amersham Bioscience)
Procedure: A typical single nucleotide incorporation and primer extension assays using HIV RT polymerase was carried out similar to one described in the literature. HIV RT polymerase was purchased from GE Healthcare and was supplied as either 12 or 30 U/μL stock solution. The final concentration of HIV RT in a reaction mixture was 0.03-0.003 U/μL. A primer/template duplex mixture was prepared by combining appropriate amounts of a 5′-^33P-labeled primer (P1) and a template in 1:2 molar ratio to provide a 4× solution with 0.5 μM primer concentration. The polymerase reactions were carried out in a 5×RT buffer containing 250 mM TRIS.HCL, 250 mM KCl, 50 mM MgCl2, 2.5 mM spermidine, 50 mM DTT, pH 8.3. For the single nucleotide incorporation assay, a P1/T1 primer-template pair was used whereas the primer extension study was performed with P1/T3 and P1/T5 primer-template pairs.
Briefly, a mixture containing 5 μL of the 4× primer/DNA duplex solution and 5 μL of 4× polymerase solution was pre-incubated at 37° C. for 2 minutes to ensure formation a DNA polymerase/DNA duplex complex. Simultaneously, 2× solutions of dNTP to provide final concentrations of 100 μM, 200 μM, 500 μM and 1 mM were also pre-incubated at 37° C. for 2 minutes as well. The polymerase reaction in a total volume of 20 μL was initiated by addition of 10 μL of the 2× dNTP solution to the DNA polymerase/DNA duplex mixture. The reactions were run at 37° C. and aliquots (2.5 μL) were removed at specified time points and mixed with 10 μL of a quenching buffer containing 80% formamide, 2 mM EDTA, 1×TBE. Quenched reactions were analyzed by loading 2 μL of a reaction sample onto a 20% denaturing polyacrylamide:gel (19:1 acrylamide:bisacrylamide, 7M urea, 0.4 mm×30 cm×40 cm) made in 1×TBE buffer (90 mM Tris-borate, 2 mM EDTA, pH 8.3). The gel was pre-equilibrated for 2 hours before loading and the reactions were run along with a tracking dye marker containing bromophenol blue (BB) and xylene cyanol (XC) until the BB dye had run ⅔ of the total gel length. For visualization, gels were scanned using a Cyclone Phosphoroimager.

SMILES	Km [1] [µM]	Vmax [1] [pmolmin^−1U]	conversion to a n+1 strand [3] [%]	control experiment with a mismatch sequence [3]	incorporation with blunt ended duplex [3]	further results
Nc1ncnc2c1ncn2[C@H]1C[C@H](O)[C@@H](COP(=O)(O)OP(=O)(O)OP(=O)(O)O)O1 [dATP, reference compound]	–	–	–	–	–	Km (HIV RT): 0.46 ± 0.15 µM; Vmax (HIV RT): 8.39 ± 0.82 pmol/min · U
Cc1cn([C@H]2C[C@H](O)[C@@H](COP(=O)(O)OP(=O)(O)OP(=O)(O)O)O2)c(=O)[nH]c1=O [dTTP, reference compound]	0.53 ± 0.07	30.82 ± 1.44	–	–	–	–
Nc1nc2c(ncn2[C@H]2C[C@H](O)[C@@H](COP(=O)(O)N[C@@H](CC(=O)O)C(=O)O)O2)c(=O)[nH]1 [Compound 9, 2′-Deoxyguanosine-5′-aspartyl phosphoramidate]	169 ± 27.9	2.143 ± 0.13	92	primer elongation was not observed	none of these compounds incorporated at all	n+1 conversion (incorporation) ([2]; 4 hours (same as at 2 hours)): 95%; misincorporation ([2]; four hours): no misincorporation was observed
Cc1cn([C@H]2C[C@H](O)[C@@H](COP(=O)(O)N[C@@H](CC(=O)O)C(=O)O)O2)c(=O)[nH]c1=O [Compound 10, 2′-Deoxythymidine-5′-aspartyl phosphoramidate]	288 ± 61.7	2.33 ± 0.22	95	primer elongation was not observed	none of these compounds incorporated at all	–
Nc1nc2c(ncn2[C@H]2C[C@H](O)[C@@H](COP(=O)(O)OP(=O)(O)OP(=O)(O)O)O2)c(=O)[nH]1 [dGTP, reference compound]	0.54 ± 1.55	28.81 ± 1.55	–	–	–	–
Nc1ncnc2c1ncn2[C@H]1C[C@H](O)[C@@H](COP(=O)(O)Oc2cc(C(=O)O)cc(C(=O)O)c2)O1 [Compound 22, 2′-deoxyadenosine-5′-(5-hydroxy-isophthalic acid) phosphodiester]	–	–	–	–	–	conversion to an n+1 strand [4]: 90-92%
CN(C(CC(=O)O)C(=O)O)P(=O)(O)OC[C@H]1O[C@@H](n2cnc3c(N)ncnc32)C[C@@H]1O (stereo partly drawn) [Compound 12, 2′-Deoxyadenosine-5′-N-methylaspartyl phosphoramidate]	–	–	–	misincorporated against adenine	–	base-pairing selectivity of incorporation ([3]; P1/T1): without base-pairing selectivity; substrate quality for HIV-RT ([3]; P1/T1): good substrate
Nc1ccn([C@H]2C[C@H](O)[C@@H](COP(=O)(O)OP(=O)(O)OP(=O)(O)O)O2)c(=O)n1 [dCTP, reference compound]	3.74 ± 0.95	5.62 ± 0.80	–	–	–	–
CC(NP(=O)(O)OC[C@H]1O[C@@H](n2cnc3c(N)ncnc32)C[C@@H]1O)C(=O)O (stereo partly drawn) [Compound 4, 2′-deoxy-adenosine-5′-alanyl-phosphoramidate]	–	–	–	–	–	fold reduction in primer extension [5]: 7 fold
Nc1ccn([C@H]2C[C@H](O)[C@@H](COP(=O)(O)N[C@@H](CC(=O)O)C(=O)O)O2)c(=O)n1 [Compound 11, 2′-Deoxycytidine-5′-aspartyl phosphoramidate]	131 ± 19.8	0.59 ± 0.04	82	primer elongation was not observed	none of these compounds incorporated at all	–
